The values that follow are results of earlier work, collected in US20050147663A1, “Method of treatment for improved bioavailability” (priority 2003, published 2005).

For data set [1] the following is noted: enhanced by food in some instances, reduced in others.
For data set [2] the following is noted: standard breakfast; capsules.
Setting [3] is: delayed release formulations, drug given 30 minutes after food.

Regarding `CC(C)CN(C[C@@H](O)[C@H](Cc1ccccc1)NC(=O)O[C@H]1CCOC1)S(=O)(=O)c1ccc(N)cc1` [amprenavir], in data set [1], the “bioavailability affected by the presence of food” value (“bioavailability affected” below) is listed as “affected”.

For the molecule `CC(C)(C)NC(=O)[C@@H]1C[C@@H]2CCCC[C@@H]2CN1C[C@@H](O)[C@H](Cc1ccccc1)NC(=O)[C@H](CC(N)=O)NC(=O)c1ccc2ccccc2n1` [saquinavir], the “bioavailability affected” value in data set [1] is reported as “affected”.

With `Cc1c(O)cccc1C(=O)N[C@@H](CSc1ccccc1)[C@H](O)CN1C[C@H]2CCCC[C@H]2C[C@H]1C(=O)NC(C)(C)C` [nelfinavir], the “bioavailability affected” value in data set [1] is given as “affected”.

In the case of `COc1ccc2[n-]c([S+]([O-])Cc3ncc(C)c(OC)c3C)nc2c1.COc1ccc2[n-]c([S+]([O-])Cc3ncc(C)c(OC)c3C)nc2c1.[Mg+2]` (centres unmarked) [esomeprazole magnesium], the “decrease of the drug AUC” value (delayed release capsules, administration after food intake) was 43-53%.

As for `CC(C)c1nc(CN(C)C(=O)N[C@H](C(=O)N[C@@H](Cc2ccccc2)C[C@H](O)[C@H](Cc2ccccc2)NC(=O)OCc2cncs2)C(C)C)cs1` [ritonavir], the “bioavailability affected” value in data set [1] was “affected”.

Regarding `Cc1cn([C@H]2C[C@H](N=[N+]=[N-])[C@@H](CO)O2)c(=O)[nH]c1=O` [zidovudine], in data set [1], the “bioavailability affected” value was “affected”.

Turning to `C[C@H]1c2cccc(O)c2C(=O)C2=C(O)[C@]3(O)C(=O)C(C(N)=O)=C(O)[C@@H](N(C)C)[C@@H]3[C@@H](O)[C@@H]21` [doxycycline], the “bioavailability as judged by AUC and Cmax” value in data set [2] is given as “reduced”.

Turning to `Cc1c(OCC(F)(F)F)ccnc1C[S+]([O-])c1nc2ccccc2[nH]1` (centres unmarked) [lansoprazole], under setting [3], the AUC diminished is recorded as 50-70% and the Cmax diminished is on record as 50-70%.

As to `CC(C)(C)NC(=O)[C@@H]1CN(Cc2cccnc2)CCN1C[C@@H](O)C[C@@H](Cc1ccccc1)C(=O)N[C@H]1c2ccccc2C[C@H]1O` [indinavir], the “bioavailability affected” value in data set [1] is recorded as “affected”.

Consider `COc1ccc2[nH]c([S+]([O-])Cc3ncc(C)c(OC)c3C)nc2c1` (centres unmarked) [omeprazole], for which the “reduction in Cmax” value (20 mg delayed release capsule, administered with applesauce) is on record as 25%. For the same molecule, the food effect entry (40 mg delayed release capsule, with applesauce) was “does not show a food effect”.

In the case of `COc1ccnc(C[S+]([O-])c2nc3ccc(OC(F)F)cc3[nH]2)c1OC` (centres unmarked) [pantoprazole sodium], the Tmax variability entry (delayed release product) was “highly variable”. In addition, the “Tmax change when given with food” value (delayed release product, given with food) is reported as “can increase significantly”.

On to `Nc1ccn([C@@H]2CS[C@H](CO)O2)c(=O)n1` [lamivudine], for which the “bioavailability affected” value in data set [1] was “affected”.

As for `Nc1ccn([C@H]2CC[C@@H](CO)O2)c(=O)n1` [zalcitabine], the “bioavailability affected” value in data set [1] is “affected”.

Turning to `O=C1Nc2ccc(Cl)cc2[C@@](C#CC2CC2)(C(F)(F)F)O1` [efavirenz], the “bioavailability affected” value in data set [1] was “affected”.
